Read-outs that look alike come from different tables or passages of the source. No end group written: not given here.
What was measured:
[1] = system: P. aeruginosa PA14 4.13 (phoQ); conditions: for MIC P. aeruginosa PA14 4.13 (phoQ), 12.5% MHB / MIC P. aeruginosa PA14 4.13 (phoQ), full MHB: polymyxin B resistant strain, 16–20 h at 37 °C; for MIC P. aeruginosa PA14 4.13 (phoQ), 12.5% MHB: 12.5% MHB pH 7.4; for MIC P. aeruginosa PA14 4.13 (phoQ), full MHB: full MHB pH 7.4; for MIC P. aeruginosa PA14 4.13: supplement CSV
[2] = system: P. aeruginosa PA14 4.18 (pmrB); conditions: for MIC P. aeruginosa PA14 4.18 (pmrB), 12.5% MHB / MIC P. aeruginosa PA14 4.18 (pmrB), full MHB: polymyxin B resistant strain, 16–20 h at 37 °C; for MIC P. aeruginosa PA14 4.18 (pmrB), 12.5% MHB: 12.5% MHB pH 7.4; for MIC P. aeruginosa PA14 4.18 (pmrB), full MHB: full MHB pH 7.4; for MIC P. aeruginosa PA14 4.18: supplement CSV
human red blood cells = assay: Hemolysis assay, minimum hemolytic concentration
[3] = system: P. aeruginosa PA14 2P4 (pmrB); assay: microbe, parasite or virus in culture; conditions: for MIC P. aeruginosa PA14 2P4 (pmrB), 12.5% MHB / MIC P. aeruginosa PA14 2P4 (pmrB), full MHB: polymyxin B resistant strain, 16–20 h at 37 °C; for MIC P. aeruginosa PA14 2P4 (pmrB), 12.5% MHB: 12.5% MHB pH 7.4; for MIC P. aeruginosa PA14 2P4 (pmrB), full MHB: full MHB pH 7.4; for MIC P. aeruginosa PA14 2P4: supplement CSV
Method in brief: (§1)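 Minimal inhibitory concentrations come from broth microdilution in MH medium, with a top peptide concentration of 64 μg/mL halved serially.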

P. aeruginosa ZEM-1A = assay: microbe, parasite or virus in culture; conditions: for MIC P. aeruginosa ZEM-1A, 12.5% MHB / MIC P. aeruginosa ZEM-1A, full MHB: clinical isolate, 16–20 h at 37 °C, cells marked c: single measurement (in duplicates); for MIC P. aeruginosa ZEM-1A, 12.5% MHB: 12.5% MHB pH 7.4; for MIC P. aeruginosa ZEM-1A, full MHB: full MHB pH 7.4; for MIC P. aeruginosa ZEM-1A: supplement CSV
Method in brief: as §1

P. aeruginosa PA14 = assay: microbe, parasite or virus in culture; conditions: for MIC P. aeruginosa PA14, 12.5% MHB: 12.5% MHB pH 7.4; for MIC P. aeruginosa PA14, 12.5% MHB / MIC P. aeruginosa PA14, full MHB: 16–20 h at 37 °C, two different duplicate MIC determinations; for MIC P. aeruginosa PA14, full MHB: full MHB pH 7.4; for MIC P. aeruginosa PA14: supplement CSV
Method in brief: as §1

P. aeruginosa ZEM9A = assay: microbe, parasite or virus in culture; conditions: for MIC P. aeruginosa ZEM9A, 12.5% MHB / MIC P. aeruginosa ZEM9A, full MHB: clinical isolate, 16–20 h at 37 °C; for MIC P. aeruginosa ZEM9A, 12.5% MHB: 12.5% MHB pH 7.4; for MIC P. aeruginosa ZEM9A, full MHB: full MHB pH 7.4; for MIC P. aeruginosa ZEM9A: supplement CSV
Method in brief: as §1

K. pneumoniae OXA-48 = assay: microbe, parasite or virus in culture; conditions: for MIC K. pneumoniae OXA-48, 12.5% MHB / MIC K. pneumoniae OXA-48, full MHB: carbapenem-resistant, 16–20 h at 37 °C; for MIC K. pneumoniae OXA-48, 12.5% MHB: 12.5% MHB pH 7.4; for MIC K. pneumoniae OXA-48, full MHB: full MHB pH 7.4; for MIC K. pneumoniae OXA-48: supplement CSV
Method in brief: as §1

E. cloacae = assay: microbe, parasite or virus in culture; conditions: for MIC E. cloacae, 12.5% MHB: 12.5% MHB pH 7.4; for MIC E. cloacae, 12.5% MHB / MIC E. cloacae, full MHB: 16–20 h at 37 °C; for MIC E. cloacae, full MHB: full MHB pH 7.4; for MIC E. cloacae: supplement CSV
Method in brief: as §1

[4] = system: E. coli BW25113 sbmA::kan; conditions: Table S1, sbmA::kan mutant, 16-20 h at 37 °C
Protocol: (§2) Minimum inhibitory concentration assay
(§3) Antimicrobial activity was assayed against P. aeruginosa PAO1, K. pneumoniae NCTC418, E. coli W3110, A. baumannii ATCC 19606, methicillin-resistant S. aureus COL (MRSA), and for selected peptides on P. aeruginosa PA14 and the polymyxin-B-resistant derivative PA14 2P4, as well as the clinical isolates ZEM-1A and ZEM9A, K. pneumoniae OXA-48, S. aureus Newman, Enterobacter cloacae and Burkholderia cenocepacia. The minimal inhibitory concentration (MIC) was determined by using broth microdilution method. A colo ny of bacteria was picked and grown in Luria-Bertani (LB) medium overnight at 37°C. For E. coli BW25113 sbmA::kan the medium was supplemented with 25 mg/L of kanamycin. The next day, the culture was then regrown in LB medium to log phase (OD600 = 0.6 to 0.8), which lasted approximately 4 h, and diluted to an OD600 of 0.022 in the desired medium. Stock solutions of 1 mg/mL of the samples were prepared in sterilized milliQ water and diluted to the beginning concentration of 64 μg/mL in 300 μL Mueller Hinton (MH)-medium. The diluted samples were added to first well of 96-well microtiter plate (TPP, untreated, Faust Laborbedarf, AG, Schaffhausen) and diluted serially by ½. Finally, 4 μL of the bacterial suspension was inoculated into the sample solutions (150 μL/well) with a final inoculation of about 5∙10^5 CFU/mL. The plates were then incubated at 37°C for 15-18h. For each assay, sterility (broth only) and growth control (broth with bacterial inoculum, without antibiotics) were checked with two columns in the plate. The next day, 15 μL of 3-(4,5-dimethylthiazol-2-yl)-2,5-diphenyltetrazolium bromide (MTT) was added to each well of the plate, such a way that MIC was defined as the lowest concentration of the peptide that inhibited visible growth of the tested […]
(§4) Table S1. Activity of stereorandomized and diastereomeric oncocins against E. coli BW25113 WT and BW25113 sbmA::kan mutant in full and 12.5% MH, at pH 7.4. […]
(§5) a) Minimum inhibitory concentration (MIC, μg/mL) was determined on E. coli BW25113 WT and […]

E. coli BW25113 WT = conditions: Table S1, 16-20 h at 37 °C
Protocol: as §2, §3, §4, §5

[5] = 12.5% Müller-Hinton medium pH 7.4
[6] = full Müller-Hinton medium pH 7.4

Substance	MIC P. aeruginosa PA14 4.13 (phoQ), 12.5% MHB [1]	MIC P. aeruginosa PA14 4.13 (phoQ), full MHB [1]	MIC P. aeruginosa PA14 4.13 ([1]; 12.5% MH pH 7.4) [µg/mL]	MIC P. aeruginosa PA14 4.13 ([1]; full MH pH 7.4) [µg/mL]	MIC P. aeruginosa PA14 4.18 (pmrB), 12.5% MHB [2] [µg/mL]	MIC P. aeruginosa PA14 4.18 (pmrB), full MHB [2] [µg/mL]	MIC P. aeruginosa PA14 4.18 ([2]; 12.5% MH pH 7.4) [µg/mL]	MIC P. aeruginosa PA14 4.18 ([2]; full MH pH 7.4) [µg/mL]	MIC P. aeruginosa PA14 2P4 (pmrB), 12.5% MHB [3] [µg/mL]	MIC P. aeruginosa PA14 2P4 (pmrB), full MHB [3] [µg/mL]	MIC P. aeruginosa PA14 2P4 ([3]; 12.5% MH pH 7.4) [µg/mL]	MIC P. aeruginosa PA14 2P4 ([3]; full MH pH 7.4) [µg/mL]	MIC P. aeruginosa ZEM-1A, 12.5% MHB (P. aeruginosa ZEM-1A) [µg/mL]	MIC P. aeruginosa ZEM-1A, full MHB (P. aeruginosa ZEM-1A) [µg/mL]	MIC P. aeruginosa ZEM-1A (P. aeruginosa ZEM-1A; 12.5% MH pH 7.4) [µg/mL]	MIC P. aeruginosa PA14, 12.5% MHB (P. aeruginosa PA14) [µg/mL]	MIC P. aeruginosa PA14, full MHB (P. aeruginosa PA14) [µg/mL]	MIC P. aeruginosa PA14 (P. aeruginosa PA14; 12.5% MH pH 7.4) [µg/mL]	MIC P. aeruginosa PA14 (P. aeruginosa PA14; full MH pH 7.4) [µg/mL]	MIC P. aeruginosa ZEM9A, 12.5% MHB (P. aeruginosa ZEM9A) [µg/mL]	other results
VDKPPYLPRPRPPRRIYNR [sr8Cterm-Onc] (VDKPPYLPRPRPPRRIYNR-NH2; also: residues 12-19 stereorandomized (1:1 L/D mixture))	8 µg/mL	64 µg/mL	8	64	8	64	8	64	2	> 64	2	>64	4 to 8	64	4 to 8	8	> 64	8	>64	8	Haemolysis on hRBC, MHC (human red blood cells; 2.5% human red blood cells (final) in 10 mM phosphate, 150 mM NaCl, pH 7.4, 25 °C, 4 h, visual inspection): >1000 µg/mL; MHC human red blood cells (human red blood cells; supplement CSV): >1000 µg/mL; MIC P. aeruginosa ZEM9A, full MHB (P. aeruginosa ZEM9A): > 64 µg/mL; MIC P. aeruginosa ZEM9A (P. aeruginosa ZEM9A; 12.5% MH pH 7.4): 8 µg/mL; MIC P. aeruginosa ZEM9A (P. aeruginosa ZEM9A; full MH pH 7.4): >64 µg/mL; MIC K. pneumoniae OXA-48, 12.5% MHB (K. pneumoniae OXA-48): 16 µg/mL; MIC K. pneumoniae OXA-48, full MHB (K. pneumoniae OXA-48): 32 µg/mL; MIC K. pneumoniae OXA-48 (K. pneumoniae OXA-48; 12.5% MH pH 7.4): 16 µg/mL; MIC K. pneumoniae OXA-48 (K. pneumoniae OXA-48; full MH pH 7.4): 32 µg/mL; MIC E. cloacae, 12.5% MHB (E. cloacae): 0.5 µg/mL; MIC E. cloacae, full MHB (E. cloacae): > 64 µg/mL; MIC E. cloacae (E. cloacae; 12.5% MH pH 7.4): 0.5 µg/mL; MIC E. cloacae (E. cloacae; full MH pH 7.4): >64 µg/mL
polymyxin B [PMB, reference compound]	2/2 μg/mL	2/2 μg/mL	2	2	1	2	1	2	1	4	1	4	8	16	8	1	< 0.5	1	<0.5	2	MIC E. coli BW25113 SbmA-, 12.5% MH [4, 5]: 1 µg/mL; MIC E. coli BW25113 SbmA-, Full MH [4, 6]: 1 µg/mL; MIC E. coli BW25113 WT, 12.5% MH (E. coli BW25113 WT; [5]): 1 to 2 µg/mL; MIC E. coli BW25113 WT, Full MH (E. coli BW25113 WT; [6]): 2 µg/mL; MIC P. aeruginosa ZEM-1A (P. aeruginosa ZEM-1A; full MH pH 7.4): 16 µg/mL; MIC P. aeruginosa ZEM9A, full MHB (P. aeruginosa ZEM9A): > 64 µg/mL; MIC P. aeruginosa ZEM9A (P. aeruginosa ZEM9A; 12.5% MH pH 7.4): 2 µg/mL; MIC P. aeruginosa ZEM9A (P. aeruginosa ZEM9A; full MH pH 7.4): >64 µg/mL; MIC K. pneumoniae OXA-48, 12.5% MHB (K. pneumoniae OXA-48): 1–2/1–2 μg/mL; MIC K. pneumoniae OXA-48, full MHB (K. pneumoniae OXA-48): 1–2/1–2 μg/mL; MIC K. pneumoniae OXA-48 (K. pneumoniae OXA-48; 12.5% MH pH 7.4): 1 to 2 µg/mL; MIC K. pneumoniae OXA-48 (K. pneumoniae OXA-48; full MH pH 7.4): 1 to 2 µg/mL; MIC E. cloacae, 12.5% MHB (E. cloacae): 1 to 2 µg/mL; MIC E. cloacae, full MHB (E. cloacae): 2 µg/mL; MIC E. cloacae (E. cloacae; 12.5% MH pH 7.4): 1 to 2 µg/mL

From article PMC11571207, “Stereorandomized Oncocins with Preserved Ribosome Binding and Antibacterial Activity” (Journal of Medicinal Chemistry, 2024)
